Reference: PubChem BioAssay (NCI)
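These data come from cells grown in 96-well plates and exposed to compound for 48 hours at five concentrations. GI50: concentration for 50% inhibition of growth. TGI: concentration producing complete growth inhibition.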

How the values were obtained:
Test in all cases: NCI anticancer screen, dose series, 48 h
NCI-H23 lung = test system: NCI-H23 lung
OVCAR-5 ovarian = test system: OVCAR-5 ovarian
SF-268 CNS = test system: SF-268 CNS
EKVX NSCLC = test system: EKVX NSCLC
HCC-2998 colon = test system: HCC-2998 colon
SN12C renal = test system: SN12C renal
SNB-75 CNS = test system: SNB-75 CNS
OVCAR-8 ovarian = test system: OVCAR-8 ovarian
PC-3 prostate = test system: PC-3 prostate
SK-OV-3 ovarian = test system: SK-OV-3 ovarian
A498 renal = test system: A498 renal
T-47D breast = test system: T-47D breast
HT29 colon = test system: HT29 colon
SK-MEL-2 melanoma = test system: SK-MEL-2 melanoma
HS 578T breast = test system: HS 578T breast
SW-620 colon = test system: SW-620 colon
SF-295 CNS = test system: SF-295 CNS
ACHN renal = test system: ACHN renal
UACC-62 melanoma = test system: UACC-62 melanoma
UO-31 renal = test system: UO-31 renal
MDA-MB-231 breast = test system: MDA-MB-231 breast
HL-60(TB) leukemia = test system: HL-60(TB) leukemia
SNB-19 CNS = test system: SNB-19 CNS
U251 CNS = test system: U251 CNS
MCF7 breast = test system: MCF7 breast
CCRF-CEM leukemia = test system: CCRF-CEM leukemia
HCT-15 colon = test system: HCT-15 colon
TK-10 renal = test system: TK-10 renal
SR leukemia = test system: SR leukemia
MALME-3M melanoma = test system: MALME-3M melanoma
K-562 leukemia = test system: K-562 leukemia
CAKI-1 renal = test system: CAKI-1 renal
RXF 393 renal = test system: RXF 393 renal
MDA-MB-435 = test system: MDA-MB-435
SK-MEL-5 melanoma = test system: SK-MEL-5 melanoma
HOP-92 NSCLC = test system: HOP-92 NSCLC
SF-539 CNS = test system: SF-539 CNS
IGROV1 ovarian = test system: IGROV1 ovarian
NCI-H522 lung = test system: NCI-H522 lung
RPMI-8226 leukemia = test system: RPMI-8226 leukemia
SK-MEL-28 melanoma = test system: SK-MEL-28 melanoma
MOLT-4 leukemia = test system: MOLT-4 leukemia
A549 NSCLC = test system: A549 NSCLC
HOP-62 NSCLC = test system: HOP-62 NSCLC
NCI-H460 lung = test system: NCI-H460 lung
DU-145 prostate = test system: DU-145 prostate
KM12 colon = test system: KM12 colon

Question: For `Cc1[nH]nc2ccc(-c3nc4cnc(N5CCN(C)CC5)cn4c3Nc3ccc(F)cc3Br)cc12`, which GI50 (NCI-H23 lung) is on record?
Answer: 1.83 µM

Question: What about the TGI (NCI-H23 lung) of the same compound?
Answer: 3.6 µM

Question: What about the GI50 (OVCAR-5 ovarian) of the same compound?
Answer: 2.38 µM

Question: What about the TGI (OVCAR-5 ovarian) of the same compound?
Answer: 7.94 µM

Question: And the GI50 (SF-268 CNS)?
Answer: 1.89 µM

Question: And the TGI (SF-268 CNS)?
Answer: 4.11 µM

Question: What about the GI50 (EKVX NSCLC) of the same compound?
Answer: 1.87 µM

Question: And the TGI (EKVX NSCLC)?
Answer: 5.39 µM

Question: What about the GI50 (HCC-2998 colon) of the same compound?
Answer: 2.11 µM

Question: And the TGI (HCC-2998 colon)?
Answer: 5.18 µM

Question: And the GI50 (SN12C renal)?
Answer: 1.65 µM

Question: And the TGI (SN12C renal)?
Answer: 3.34 µM

Question: What about the GI50 (SNB-75 CNS) of the same compound?
Answer: 1.22 µM

Question: And the TGI (SNB-75 CNS)?
Answer: 2.57 µM

Question: And the GI50 (OVCAR-8 ovarian)?
Answer: 2.29 µM

Question: What about the TGI (OVCAR-8 ovarian) of the same compound?
Answer: 6.31 µM

Question: What about the GI50 (PC-3 prostate) of the same compound?
Answer: 2.47 µM

Question: And the TGI (PC-3 prostate)?
Answer: 10.2 µM

Question: What about the GI50 (SK-OV-3 ovarian) of the same compound?
Answer: 2.08 µM

Question: What about the TGI (SK-OV-3 ovarian) of the same compound?
Answer: 5.09 µM

Question: What about the GI50 (A498 renal) of the same compound?
Answer: 1.32 µM

Question: And the TGI (A498 renal)?
Answer: 2.78 µM

Question: And the GI50 (T-47D breast)?
Answer: 1.95 µM

Question: And the TGI (T-47D breast)?
Answer: 5.07 µM

Question: What about the GI50 (HT29 colon) of the same compound?
Answer: 2.24 µM

Question: And the TGI (HT29 colon)?
Answer: 5.08 µM

Question: And the GI50 (SK-MEL-2 melanoma)?
Answer: 2.84 µM

Question: What about the TGI (SK-MEL-2 melanoma) of the same compound?
Answer: 7.9 µM

Question: And the GI50 (HS 578T breast)?
Answer: 2.44 µM

Question: And the TGI (HS 578T breast)?
Answer: 6.43 µM

Question: And the GI50 (SW-620 colon)?
Answer: 2.9 µM

Question: What about the TGI (SW-620 colon) of the same compound?
Answer: 11 µM

Question: And the GI50 (SF-295 CNS)?
Answer: 1.61 µM

Question: What about the TGI (SF-295 CNS) of the same compound?
Answer: 3.29 µM

Question: What about the GI50 (ACHN renal) of the same compound?
Answer: 1.72 µM

Question: What about the TGI (ACHN renal) of the same compound?
Answer: 3.39 µM

Question: What about the GI50 (UACC-62 melanoma) of the same compound?
Answer: 1.64 µM

Question: What about the TGI (UACC-62 melanoma) of the same compound?
Answer: 3.22 µM

Question: And the GI50 (UO-31 renal)?
Answer: 1.34 µM

Question: What about the TGI (UO-31 renal) of the same compound?
Answer: 2.93 µM

Question: What about the GI50 (MDA-MB-231 breast) of the same compound?
Answer: 1.84 µM

Question: What about the TGI (MDA-MB-231 breast) of the same compound?
Answer: 4.02 µM

Question: And the GI50 (HL-60(TB) leukemia)?
Answer: 1.79 µM

Question: And the TGI (HL-60(TB) leukemia)?
Answer: 4.81 µM

Question: And the GI50 (SNB-19 CNS)?
Answer: 2.87 µM

Question: What about the TGI (SNB-19 CNS) of the same compound?
Answer: 10.4 µM

Question: And the GI50 (U251 CNS)?
Answer: 2.43 µM

Question: What about the TGI (U251 CNS) of the same compound?
Answer: 8.04 µM

Question: What about the GI50 (MCF7 breast) of the same compound?
Answer: 1.48 µM

Question: What about the TGI (MCF7 breast) of the same compound?
Answer: 2.9 µM

Question: And the GI50 (CCRF-CEM leukemia)?
Answer: 2.25 µM

Question: And the TGI (CCRF-CEM leukemia)?
Answer: 7.08 µM

Question: What about the GI50 (HCT-15 colon) of the same compound?
Answer: 1.73 µM

Question: What about the TGI (HCT-15 colon) of the same compound?
Answer: 3.38 µM

Question: And the GI50 (TK-10 renal)?
Answer: 2.82 µM

Question: What about the TGI (TK-10 renal) of the same compound?
Answer: 8.83 µM

Question: What about the GI50 (SR leukemia) of the same compound?
Answer: 0.303 µM

Question: What about the TGI (SR leukemia) of the same compound?
Answer: > 100 µM

Question: And the GI50 (MALME-3M melanoma)?
Answer: 1.51 µM

Question: And the TGI (MALME-3M melanoma)?
Answer: 3.14 µM

Question: What about the GI50 (K-562 leukemia) of the same compound?
Answer: 1.24 µM

Question: And the TGI (K-562 leukemia)?
Answer: 7.56 µM

Question: And the GI50 (CAKI-1 renal)?
Answer: 2.23 µM

Question: And the TGI (CAKI-1 renal)?
Answer: 6.51 µM

Question: What about the GI50 (RXF 393 renal) of the same compound?
Answer: 1.57 µM

Question: What about the TGI (RXF 393 renal) of the same compound?
Answer: 3.2 µM

Question: What about the GI50 (MDA-MB-435) of the same compound?
Answer: 1.87 µM

Question: What about the TGI (MDA-MB-435) of the same compound?
Answer: 3.83 µM

Question: And the GI50 (SK-MEL-5 melanoma)?
Answer: 1.74 µM

Question: And the TGI (SK-MEL-5 melanoma)?
Answer: 3.25 µM

Question: What about the GI50 (HOP-92 NSCLC) of the same compound?
Answer: 1.59 µM

Question: And the TGI (HOP-92 NSCLC)?
Answer: 3.67 µM

Question: What about the GI50 (SF-539 CNS) of the same compound?
Answer: 1.79 µM

Question: What about the TGI (SF-539 CNS) of the same compound?
Answer: 3.61 µM

Question: What about the GI50 (IGROV1 ovarian) of the same compound?
Answer: 1.69 µM

Question: What about the TGI (IGROV1 ovarian) of the same compound?
Answer: 3.46 µM

Question: And the GI50 (NCI-H522 lung)?
Answer: 2.01 µM

Question: What about the TGI (NCI-H522 lung) of the same compound?
Answer: 4.72 µM

Question: What about the GI50 (RPMI-8226 leukemia) of the same compound?
Answer: 2.16 µM

Question: And the TGI (RPMI-8226 leukemia)?
Answer: 5.07 µM

Question: What about the GI50 (SK-MEL-28 melanoma) of the same compound?
Answer: 1.69 µM

Question: And the TGI (SK-MEL-28 melanoma)?
Answer: 3.2 µM

Question: What about the GI50 (MOLT-4 leukemia) of the same compound?
Answer: 2.85 µM

Question: What about the TGI (MOLT-4 leukemia) of the same compound?
Answer: 9.43 µM

Question: What about the GI50 (A549 NSCLC) of the same compound?
Answer: 2.81 µM

Question: What about the TGI (A549 NSCLC) of the same compound?
Answer: 20.5 µM

Question: And the GI50 (HOP-62 NSCLC)?
Answer: 2.23 µM

Question: And the TGI (HOP-62 NSCLC)?
Answer: 6.69 µM

Question: And the GI50 (NCI-H460 lung)?
Answer: 2.03 µM

Question: What about the TGI (NCI-H460 lung) of the same compound?
Answer: 4.35 µM

Question: What about the GI50 (DU-145 prostate) of the same compound?
Answer: 1.99 µM

Question: And the TGI (DU-145 prostate)?
Answer: 3.93 µM

Question: And the GI50 (KM12 colon)?
Answer: 3.67 µM

Question: What about the TGI (KM12 colon) of the same compound?
Answer: 16.4 µM
